Results: ChEMBL document CHEMBL2346664, “Synthesis, characterization and in vitro anticancer evaluation of novel 1,2,4-triazolin-3-one derivatives” (2013)

System: SNB-75
Assay: Growth inhibition of human SNB75 cells assessed as cell growth at 10 '-6 M after 48 hrs by sulforhodamine B assay
Assay type: functional
Conditions: SNB-75, 48 h, read-out: Activity

**Q.** For Cc1cc(=O)oc2cc(OCCn3c(C)nn(-c4ccc(Cl)cc4)c3=O)ccc12, which growth at 1 µM is on record?
**A.** 74%
